Measured values as given in PMC5608352, “Formyl peptide derived lipopeptides disclose differences between the receptors in mouse and men and call the pepducin concept in question” (PLoS ONE, 2017).
Entries after “also recorded” stand apart in the source; their conditions may differ. Residues, ends and D or L forms follow the SMILES beside them. *: point of attachment. Palmitoyl = CCCCCCCCCCCCCCCC(=O)*

Key:
Assay type in all cases: cell-based
[1] = target: T1, Fpr2 (Mus musculus, UniProt O88536); experiment: Inhibition of F2Pal16-induced superoxide release, WT mouse neutrophils; details: Boc2 2 μM or peptidomimetic inhibitor 1 μM (five experiments), or mF2Pal16 500 nM against F2Pal16 500 nM (three experiments); 5 min pre-incubation
T1 construct: WT mouse neutrophils (5 x 10^4 cells) were pre-incubated without (solid line) or with mF2Pal16; endogenous in cells; host or cells: bone marrow neutrophils of C57BL/6 wild-type mice, TNF-alpha primed
T1 sequence (O88536 1-351): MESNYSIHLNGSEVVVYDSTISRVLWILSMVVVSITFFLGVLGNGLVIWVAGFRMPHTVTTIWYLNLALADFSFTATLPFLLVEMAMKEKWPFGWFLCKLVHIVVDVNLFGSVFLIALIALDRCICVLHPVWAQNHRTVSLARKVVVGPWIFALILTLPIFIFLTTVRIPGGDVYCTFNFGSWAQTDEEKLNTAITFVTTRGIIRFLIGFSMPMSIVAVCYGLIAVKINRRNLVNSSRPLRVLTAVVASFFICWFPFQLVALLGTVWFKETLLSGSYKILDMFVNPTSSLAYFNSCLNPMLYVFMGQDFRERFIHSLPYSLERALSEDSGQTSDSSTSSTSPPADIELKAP
Excerpt: (§1) Mice (8–12 weeks of age) were killed by cervical dislocation, the femurs and tibias were removed and freed of soft tissue attachments, and the extreme distal tip of each extremity was cut off. KRG without Ca^2+ and Mg^2+ (KRG-) was forced through the bone by using a 1-mL syringe with a 27-gauge needle. After dispersing cell clumps and removing the debris, the bone marrow granulocytes were isolated according to an earlier described procedure with some modifications. Briefly, a cell suspension in 2 mL of KRG- was laid on top of a three-layer Percoll gradient (1.095, 1.085, and 1.070 g/mL). The density of each Percoll solution was verified using density marker beads. After centrifugation at 500 × g for 30 min at 4°C in a swinging bucket rotor, the lowest band (1.085/1.095 g/mL interface) was collected as the neutrophil fraction. After washing with KRG-, remaining red blood cells were eliminated by hypotonic lysis. After a final wash with KRG-, the cells were resuspended in KRG. The cell number and population of bone marrow cells were determined by flow cytometry based on forward scatter (size) and side scatter (density) localization.
(§2) NADPH-oxidase activity was determined using an isoluminol and HRP-enhanced chemiluminescence (CL) system that allow for the determination of superoxide production. The CL activity was measured in a six-channel Biolumat LB 9505 apparatus (Berthold Co., Wildbad, Germany), using disposable 4-mL polypropylene tubes with 1 mL reaction mixture. […] The light emission was recorded continuously over time and presented as superoxide production (in arbitrary light units, cpm x10^-6) as a function of time (min). The activity before stimulus addition was recorded as basal line and this activity was not changed in vehicle control samples. […]
Data analysis was performed using Graph Pad Prism 7.0. The EC50/IC50 values were determined from experiments in which the activities were normalized to the response induced by maximal response or induced by agonist in the absence of inhibitor. […]

[2] = target: T1, Fpr2; experiment: Inhibition of F2M2-induced superoxide release, WT mouse neutrophils; details: mF2Pal16 500 nM; F2M2 150 nM; three independent experiments
Excerpt: as §1, with “After centrifugation at 500 × g for 30 min at 4°C in a swinging bucket rotor, the lowest band (1.085/1.095 g/mL interface) was collected as the neutrophil fraction. After washing with KRG-, remaining red blood cells were eliminated by hypotonic lysis. After a final wash with KRG-, the cells were resuspended in KRG.” left out
NADPH-oxidase activity was determined using an isoluminol and HRP-enhanced chemiluminescence (CL) system that allow for the determination of superoxide production. The CL activity was measured in a six-channel Biolumat LB 9505 apparatus (Berthold Co., Wildbad, Germany), using disposable 4-mL polypropylene tubes with 1 mL reaction mixture. […] The light emission was recorded continuously over time and presented as superoxide production (in arbitrary light units, cpm x10^-6) as a function of time (min). […]

[3] = target: T1, Fpr2; experiment: Receptor preference in mouse neutrophils (Fpr2 versus Fpr1); details: conclusion from superoxide release, Fpr2^-/- cells, desensitization and inhibitors
Excerpt: C57BL/6 wild-type mice were purchased from Charles River Laboratories and Fpr2^−/− mice generated as described previously, were generously provided by Dr Ji Ming Wang, Frederick National Laboratory for Cancer Research, USA. Mice were kept under standard temperature and light conditions and fed laboratory chow and water ad libitum, at the Department of Rheumatology and Inflammation Research, University of Gothenburg. Sex matched WT and Fpr2^-/- animals (age 8–10 weeks) were used to isolated bone marrow derived neutrophils. The studies performed were approved by the Ethical Committee for Animal Experimentation, Göteborg, Sweden.
Mice (8–12 weeks of age) were killed by cervical dislocation, the femurs and tibias were removed and freed of soft tissue attachments, and the extreme distal tip of each extremity was cut off. […] The cell number and population of bone marrow cells were determined by flow cytometry based on forward scatter (size) and side scatter (density) localization.
NADPH-oxidase activity was determined using an isoluminol and HRP-enhanced chemiluminescence (CL) system that allow for the determination of superoxide production. The CL activity was measured in a six-channel Biolumat LB 9505 apparatus (Berthold Co., Wildbad, Germany), using disposable 4-mL polypropylene tubes with 1 mL reaction mixture. […]

[4] = system: FPR2; experiment: Inhibition of PSMα2-induced superoxide release, human neutrophils
Excerpt: (§3) Human peripheral blood neutrophils were isolated from buffy coats from healthy blood donors using dextran sedimentation and Ficoll-Paque gradient centrifugation as described. The remaining erythrocytes were disrupted by hypotonic lysis and the neutrophils were washed twice, suspended in KRG and, stored on melting ice until use. This isolation process permits cells to be purified with minimal granule mobilization. The buffy coats were obtained from the blood bank at Sahlgrenska University Hospital. Ethics approval was not needed since the buffy coats were provided anonymously and could not be traced back to a specific individual. This is in line with Swedish legislation section code 4§ 3p SFS 2003:460 (Lag om etikprövning av forskning som avser människor).
as §2

[5] = system: FPR2; experiment: Receptor preference in human neutrophils (FPR2 versus FPR1); details: conclusion from superoxide release experiments
Excerpt: as §3, §2

## CCCCCCCCCCCCCCCC(=O)N[C@@H](CCCCN)C(=O)N[C@H](C(=O)N[C@@H](CC(N)=O)C(=O)N[C@@H](CCCNC(=N)N)C(=O)N[C@@H](CCCNC(=N)N)C(=O)N[C@@H](CC(N)=O)C(=O)N[C@@H](CC(C)C)C(=O)N[C@H](C(=O)N[C@@H](CC(N)=O)C(=O)N[C@@H](CO)C(=O)N[C@@H](CO)C(=O)N[C@@H](CCCNC(=N)N)C(=O)N1CCC[C@H]1C(=O)N[C@@H](CC(C)C)C(=O)N[C@@H](CCCNC(=N)N)C(=O)N[C@H](C(=O)O)C(C)C)C(C)C)[C@@H](C)CC [mF2Pal16] (Palmitoyl-KINRRNLVNSSRPLRV-OH; C-terminus assumed)
[1]
  effect of inhibitor on F2Pal16 response, WT mouse neutrophils: inhibitory effect
[2]
  effect on F2M2 response, mouse neutrophils: inhibitory effect
[3]
  receptor preference / modulation of Fpr2 (versus Fpr1) in mouse neutrophils: inhibits the activity of Fpr2 in mouse neutrophils; also recorded: potent and selective inhibitor for Fpr2/FPR2; also recorded: targets this receptor
[4]
  effect on PSMα2 response, human neutrophils: largely inhibited
[5]
  receptor preference / modulation of FPR2 (versus FPR1) in human neutrophils: potent and selective inhibitor for Fpr2/FPR2; also recorded: inhibits the activity of FPR2 in human neutrophils
